Reference: patent US7229984B2, “Dibenzoxazepinone derivatives and uses thereof” (Roche Palo Alto LLC, priority 2004, dated 2007)
Counter-ions that a name gives are not always drawn.

How the values were obtained:
[1] = target: T1, recombinant human 5-HT6 receptor (Homo sapiens, UniProt P50406); assay: Radioligand binding, [3H]LSD competition in HEK293 cell membranes; settings: [3H]LSD displacement, pH 7.4, 37° C., approximate value, read-out: pKi for 5-HT6 (converted)
T1 construct: expressed in transfected cells; membranes
T1 sequence (P50406 whole entry): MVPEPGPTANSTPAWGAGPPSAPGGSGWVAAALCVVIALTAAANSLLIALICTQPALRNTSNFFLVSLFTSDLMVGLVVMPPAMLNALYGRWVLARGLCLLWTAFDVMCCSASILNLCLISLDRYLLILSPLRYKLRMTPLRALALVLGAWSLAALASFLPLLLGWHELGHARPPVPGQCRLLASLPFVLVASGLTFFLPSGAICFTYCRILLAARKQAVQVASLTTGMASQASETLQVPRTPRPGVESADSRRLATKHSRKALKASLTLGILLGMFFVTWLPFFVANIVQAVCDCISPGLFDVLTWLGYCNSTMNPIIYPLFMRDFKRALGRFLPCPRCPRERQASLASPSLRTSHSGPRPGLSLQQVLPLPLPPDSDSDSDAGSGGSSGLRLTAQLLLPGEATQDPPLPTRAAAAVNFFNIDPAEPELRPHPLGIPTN
Protocol: (§1) The binding activity of compounds of this invention in vitro was determined as follows. Duplicate determinations of 5-HT6 ligand affinity were made by competing for binding of [^3H]LSD in cell membranes derived from HEK293 cells stably expressing recombinant human 5-HT6 receptor. Duplicate determinations of 5-HT2A ligand affinity were made by competing for binding of [^3H]Ketanserin (3-(2-(4-(4-fluorobenzoyl)piperidinol)ethyl)-2,4(1H,3H)-quinazolinedione) in cell membranes derived from CHO-K1 cells stably expressing recombinant human 5-HT2A receptor. Membranes were prepared from HEK 293 cell lines by the method described by Monsma et al., Molecular Pharmacology, Vol. 43 pp. 320–327 (1993), and from CHO-K1cell lines as described by Bonhaus et al., Br J Pharmacol. Jun; 115(4):622–8 (1995).
(§2) For estimation of affinity at the 5-HT6 receptor, all determinations were made in assay buffer containing 50 mM Tris-HCl, 10 mM MgSO4, 0.5 mM EDTA, 1 mM ascorbic acid, pH 7.4 at 37° C., in a 250 microliter reaction volume. […]
(§3) Assay tubes containing [^3H] […] Bound[^3H]LSD or [^3H]Ketanserin were determined as radioactive counts per minute using Packard TopCount.
(§4) Displacement of [^3H]LSD or [^3H]Ketanserin from the binding sites was quantified by fitting concentration-binding data to a 4-parameter logistic equation: […]

[2] = target: T2, recombinant human 5-HT2A receptor (Homo sapiens, UniProt P28223); assay: Radioligand binding, [3H]Ketanserin competition in CHO-K1 cell membranes; settings: [3H]Ketanserin displacement, pH 7.4, 32° C., approximate value, read-out: pKi for 5-HT2A (converted)
T2 construct: expressed in transfected cells; membranes
T2 sequence (P28223 whole entry): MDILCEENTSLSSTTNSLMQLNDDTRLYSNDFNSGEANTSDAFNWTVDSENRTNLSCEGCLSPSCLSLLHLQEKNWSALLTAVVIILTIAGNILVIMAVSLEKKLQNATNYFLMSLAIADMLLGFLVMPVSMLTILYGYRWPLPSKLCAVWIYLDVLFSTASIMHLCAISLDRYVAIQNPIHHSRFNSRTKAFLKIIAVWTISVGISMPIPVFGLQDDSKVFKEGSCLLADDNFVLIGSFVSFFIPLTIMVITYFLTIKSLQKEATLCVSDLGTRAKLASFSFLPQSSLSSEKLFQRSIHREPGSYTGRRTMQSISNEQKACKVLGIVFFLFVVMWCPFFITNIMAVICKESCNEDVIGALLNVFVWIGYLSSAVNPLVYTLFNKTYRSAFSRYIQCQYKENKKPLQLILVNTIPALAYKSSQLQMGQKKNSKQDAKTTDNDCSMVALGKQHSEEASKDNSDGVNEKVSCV
Protocol: as §1, §2, §3, §4

Row | melting point | SMILES | further results
1 | 322 to 323 °C (dec.) | O=C1c2cccc(N3CCNCC3)c2Nc2ccccc2N1Cc1ccccc1 (as salt: HCl) [Compound 13, 10-Benzyl-4-piperazin-1-yl-5,10-dihydro-dibenzo[b,e][1,4]diazepin-11-one] | –
2 | 301 to 302 °C | O=C1c2cccc(N3CCNCC3)c2Sc2ccccc2N1Cc1ccccc1 (as salt: HCl) [Compound 20, 10-Benzyl-4-piperazin-1-yl-10H-dibenzo[b,f][1,4]thiazepin-11-one] | –
3 | 98 to 99 °C | O=C1c2cccc(N3CCNCC3)c2Oc2ccccc2N1Cc1c[nH]c2ccccc12 [Compound 37, 10-(1H-Indol-3-ylmethyl)-4-piperazin-1-yl-10H-dibenzo[b,f][1,4]oxazepin-11-one] | –
4 | – | O=C1c2cccc(N3CCNCC3)c2Oc2ccc(F)cc2N1Cc1cccc(C(F)(F)F)c1 [Compound 28, 8-Fluoro-4-piperazin-1-yl-10-(3-trifluoromethyl-benzyl)-10H-dibenzo[b,f][1,4]oxazepin-11-one] | Ki [1]: ~0.282 nM
5 | – | O=C1c2cccc(N3CCNCC3)c2Oc2c(F)cccc2N1CCc1ccccc1 [Compound 26, 6-Fluoro-10-phenethyl-4-piperazin-1-yl-10H-dibenzo[b,f][1,4]oxazepin-11-one,hydrochloride] | Ki [2]: ~1.32 nM
6 | 198 to 199 °C | O=C1c2cccc(N3CCNCC3)c2Oc2ccccc2N1Cc1ccccc1 (as salt: HCl) [Compound 1, 10-Benzyl-4-piperazin-1-yl-10H-dibenzo[b,f][1,4]oxazepin-11-one] | –
